The subject of data set [1] is Myzus persicae (Green Peach Aphid). The experiment in a line: Example B5: Activity against Myzus persicae, sprayed sunflower leaf discs. In kind it is in vivo. To be noted: foliar, 144 h, application rate 200 ppm, mixed-age aphids on sunflower leaf discs, 6 days after infestation. On the procedure:
Sunflower leaf discs were placed on agar in a 24-well microtiter plate and sprayed with aqueous test solutions prepared from 10′000 ppm DMSO stock solutions. After drying, the leaf discs were infested with an aphid population of mixed ages. The samples were assessed for mortality 6 days after infestation.

Data set [2] has the same test system. The experiment in a line: Example B6: Activity against Myzus persicae, systemic via roots of pea seedlings. In kind it is in vivo. Conditions: 144 h, test rate 24 ppm, pea seedling roots in test solution, 6 days. The protocol:
Roots of pea seedlings infested with an aphid population of mixed ages were placed directly in the aqueous test solutions prepared from 10′000 DMSO stock solutions. The samples were assessed for mortality 6 days after placing seedlings in test solutions.

Data set [3] relates to Frankliniella occidentalis (Western Flower Thrips). The data set is described as follows: Example B8: Activity against Frankliniella occidentalis, sprayed sunflower leaf discs. In kind it is in vivo. To be noted: foliar, 168 h, application rate 200 ppm, mixed ages on sunflower leaf discs, 7 days after infestation. On the procedure: Sunflower leaf discs were placed on agar in 24-well microtiter plates and sprayed with aqueous test solutions prepared from […] stock solutions. After drying the leaf discs were infested with a Frankliniella population of mixed ages. The samples were assessed for mortality 7 days after infestation.

Data set [4] relates to Euschistus heros (Neotropical Brown Stink Bug). The data set is described as follows: Example B9: Activity against Euschistus heros, sprayed soybean leaf. Format: in vivo. To be noted: 120 h, application rate 200 ppm, N2 nymphs on soybean leaf, 5 days after infestation, read-out: effect in at least one of the two categories (mortality or growth inhibition). On the procedure: Soybean leaf on agar in 24-well microtiter plates were sprayed with aqueous test solutions prepared from 10′000 ppm DMSO stock solutions. After drying the leaf were infested with N2 nymphs. The samples were assessed for mortality and growth inhibition in comparison to untreated samples 5 days after infestation.

In data set [5] the test system is Diabrotica balteata (Corn Root Worm). The experiment in a line: Example B4: Activity against Diabrotica balteata, sprayed maize sprouts. Format: in vivo. Conditions: 96 h, application rate 200 ppm, L2 larvae on maize sprouts, 4 days after infestation, read-out: effect in at least one of the two categories (mortality or growth inhibition). The protocol:
Maize sprouts placed onto an agar layer in 24-well microtiter plates were treated with aqueous test solutions prepared from 10′000 ppm DMSO stock solutions by spraying. After drying, the plates were infested with L2 larvae (6 to 10 per well). The samples were assessed for mortality and growth inhibition in comparison to untreated samples 4 days after infestation.

Data set [6] deals with Bemisia tabaci (Cotton White Fly). The data set is described as follows: Example B7: Activity against Bemisia tabaci, sprayed cotton leaf discs. Format: in vivo. Conditions: foliar, 144 h, application rate 200 ppm, adult white flies on cotton leaf discs, 6 days after incubation. On the procedure:
Cotton leaf discs were placed on agar in 24-well microtiter plates and sprayed with aqueous test solutions prepared from 10′000 ppm DMSO stock solutions. After drying the leaf discs were infested with adult white flies. The samples were checked for mortality 6 days after incubation.

The subject of data set [7] is Plutella xylostella (Diamond Back Moth). The data set is described as follows: Example B12: Activity against Plutella xylostella, artificial diet, eggs. In kind it is in vivo. Conditions: 192 h, application rate 200 ppm, eggs on artificial diet, 8 days after infestation, read-out: effect in at least one of the two categories (mortality or growth inhibition). The protocol:
24-well microtiter plates with artificial diet were treated with aqueous test solutions prepared from 10′000 ppm DMSO stock solutions by pipetting. After drying, Plutella eggs were pipetted through a plastic stencil onto a gel blotting paper and the plate was closed with it. The samples were assessed for mortality and growth inhibition in comparison to untreated samples 8 days after infestation.

Data set [8] shares this test system. The experiment in a line: Example B3: Activity against Plutella xylostella, artificial diet, L2 larvae. Format: in vivo. Conditions: 120 h, application rate 200 ppm, L2 larvae on artificial diet, 5 days after infestation, read-out: effect in at least one of the two categories (mortality or growth inhibition). On the procedure: 24-well microtiter plates with artificial diet were treated with aqueous test solutions prepared from 10′000 ppm DMSO stock solutions by pipetting. After drying, the plates were infested with L2 larvae (10 to 15 per well). The samples were assessed for mortality and growth inhibition in comparison to untreated samples 5 days after infestation.

Data set [9] has as its system Spodoptera littoralis (Egyptian Cotton Leaf Worm). The data set is described as follows: Example B1: Activity against Spodoptera littoralis, sprayed cotton leaf discs. In kind it is in vivo. Conditions: foliar, 72 h, application rate 200 ppm, L1 larvae on cotton leaf discs, 3 days after infestation, read-out: control (at least one of mortality, anti-feedant effect, growth inhibition). On the procedure:
Cotton leaf discs were placed onto agar in 24-well microtiter plates and sprayed with aqueous test solutions prepared from 10′000 ppm DMSO stock solutions. After drying the leaf discs were infested with five L1 larvae. The samples were assessed for mortality, anti-feeding effect, and growth inhibition in comparison to untreated samples 3 days after infestation. Control of Spodoptera littoralis by a test sample is given when at least one of the categories mortality, anti-feedant effect, and growth inhibition is higher than the untreated sample.

As usually defined, the melting point is the temperature of the solid-liquid transition. Turning to `CCSc1cc2c(cc1-c1nc3cc(SC(F)(F)F)ccc3o1)n(C)c(=O)n2C`, the melting point lay within 206 to 208 °C.
In general, mortality refers to the share of the test organisms that died. Turning to `CCS(=O)(=O)c1cc2c(cc1-c1nc3cc(C(F)(F)F)cnc3n1C)n(CS(C)(=O)=O)c(=O)n2C` [Compound P16, 6-ethylsulfonyl-1-methyl-3-(methylsulfonylmethyl)-5-[3-methyl-6-(trifluoromethyl)imidazo[4,5-b]pyridine-2-yl]benzimidazol-2-one], the mortality at 200 ppm in data set [1] and in data set [3] was at least 80% each time. This compound gave a mortality at 24 ppm in data set [2] of at least 80%. The percent effect (mortality or growth inhibition) at 200 ppm in data set [4] was at least 80%.
In the case of `CCS(=O)(=O)c1cc2c(cc1-c1nc3cc(SC(F)(F)F)ccc3n1C)n(C)c(=O)n2C` [Compound P36, 5-ethylsulfonyl-1,3-dimethyl-6-[1-methyl-5-(trifluoromethyl-sulfanyl)benzimidazol-2-yl]benzimidazol-2-one], the percent effect (mortality or growth inhibition) at 200 ppm in [5], in data set [4] and in data set [7] was at least 80% each time. For the same compound, the mortality at 200 ppm in [1] and in data set [6] was at least 80% each time. Also, the mortality at 24 ppm in data set [2] was at least 80%.
On to `CCSc1cc2c(cc1-c1nc3cc(C(F)(F)F)cnc3n1C)n(C#N)c(=O)n2C`, for which the melting point was 255 to 257 °C.
For `CCSc1cc2c(cc1-c1nc3cc(C(F)(F)F)cnc3n1C)n(C)c(=O)n2CC`, the melting point lay in the range of 186 to 188 °C.
Take `CCn1c(=O)n(C)c2cc(-c3nc4cc(C(F)(F)F)ncc4n3C)c(S(=O)(=O)CC)cc21` [Compound P4, 1-ethyl-6-ethylsulfonyl-3-methyl-5-[3-methyl-6-(trifluoromethyl)imidazo[4,5-c]pyridin-2-yl]benzimidazol-2-one]: the percent effect (mortality or growth inhibition) at 200 ppm in [8], in [5] and in [4] was at least 80% each time. The mortality at 200 ppm in data set [1] and in data set [3] was at least 80% each time. This compound also showed a mortality at 24 ppm in [2] of at least 80%.
On to `CCS(=O)(=O)c1cc2c(cc1-c1nc3cc(C(F)(F)F)cnc3n1C)n(C#N)c(=O)n2C` [Compound P14, 5-ethylsulfonyl-3-methyl-6-[3-methyl-6-(trifluoromethyl)imidazo[4,5-b]pyridin-2-yl]-2-oxo-benzimidazole-1-carbonitrile], for which the mortality at 200 ppm in data set [1] and in [3] was at least 80% throughout. For the same compound, the mortality at 24 ppm in data set [2] is at least 80%. The percent effect (mortality or growth inhibition) at 200 ppm in [4] was at least 80%.
As to `CCS(=O)(=O)c1cc2c(nc1-c1nc3cc(SC(F)(F)F)ccc3n1C)n(C)c(=O)n2C` [Compound P38, 6-ethylsulfonyl-1,3-dimethyl-5-[1-methyl-5-(trifluoromethyl-sulfanyl)benzimidazol-2-yl]imidazo[4,5-b]pyridin-2-one], the percent control (mortality, anti-feedant effect or growth inhibition) at 200 ppm in [9] is at least 80%. Moreover, the percent effect (mortality or growth inhibition) at 200 ppm in [5] and in [7] was at least 80% each time. For the same compound, the mortality at 200 ppm in data set [1], in [6] and in data set [3] was at least 80% each time. For the same compound, the mortality at 24 ppm in [2] is at least 80%.
As for `CCS(=O)(=O)c1cc2c(nc1-c1nc3cc(C(F)(F)F)cnc3n1C)n(C)c(=O)n2C` [Compound P22, 6-ethylsulfonyl-1,3-dimethyl-5-[3-methyl-6-(trifluoromethyl)imidazo[4,5-b]pyridine-2-yl]imidazo[4,5-b]pyridine-2-one], the percent control (mortality, anti-feedant effect or growth inhibition) at 200 ppm in data set [9] was at least 80%. Further, the percent effect (mortality or growth inhibition) at 200 ppm in data set [8], in [5] and in [4] was at least 80% each time. Also, the mortality at 200 ppm in data set [1], in [6] and in [3] was at least 80% throughout. The mortality at 24 ppm in [2] was at least 80%.
Turning to `CCS(=O)(=O)c1cc2c(nc1-c1nc3cc([S+]([O-])C(F)(F)F)ccc3o1)n(C)c(=O)n2C` (centres unmarked) [Compound P45, 6-ethylsulfonyl-1,3-dimethyl-5-[5-(trifluoromethylsulfinyl)-1,3-benzoxazol-2-yl]imidazo[4,5-b]pyridin-2-one], the percent control (mortality, anti-feedant effect or growth inhibition) at 200 ppm in data set [9] is at least 80%. Moreover, the percent effect (mortality or growth inhibition) at 200 ppm in data set [5], in data set [4] and in data set [7] was at least 80% in each case. The same compound gave a mortality at 24 ppm in [2] of at least 80%. The compound also showed a mortality at 200 ppm in [3] of at least 80%.
Regarding `CCS(=O)(=O)c1cc2c(nc1-c1nc3cc(C(F)(F)F)ncc3n1C)n(C)c(=O)n2C` [Compound P8, 6-ethylsulfonyl-1,3-dimethyl-5-[3-methyl-6-(trifluoromethyl)imidazo[4,5-c]pyridin-2-yl]imidazo[4,5-b]pyridin-2-one], the percent effect (mortality or growth inhibition) at 200 ppm in data set [8] and in [4] was at least 80% each time. For the same compound, the mortality at 200 ppm in data set [1], in data set [6] and in data set [3] was at least 80% throughout. The compound further came in with a mortality at 24 ppm in [2] of at least 80%.
As to `CCS(=O)(=O)c1cc2c(cc1-c1nc3cc(C(F)(F)F)cnc3n1C)n(COC)c(=O)n2C` [Compound P18, 5-ethylsulfonyl-1-(methoxy-methyl)-3-methyl-6-[3-methyl-6-(trifluoromethyl)imidazo[4,5-b]pyridine-2-yl]benzimidazol-2-one], the percent effect (mortality or growth inhibition) at 200 ppm in data set [8], in data set [5] and in data set [4] was at least 80% throughout. In data set [1], this compound came in with a mortality at 200 ppm of at least 80%. For the same compound, in data set [2], the mortality at 24 ppm was at least 80%.
Take `CCSc1cc2c(cc1-c1nc3cc(C(F)(F)F)cnc3n1C)n(CC)c(=O)n2C` [Compound P7, 1-ethyl-5-ethylsulfanyl-3-methyl-6-[3-methyl-6-(trifluoromethyl)imidazo[4,5-b]pyridin-2-yl]benzimidazol-2-one]: the percent effect (mortality or growth inhibition) at 200 ppm in data set [8], in data set [5] and in [4] was at least 80% throughout.
On to `CCS(=O)(=O)c1cc2c(nc1-c1nc3cc(S(=O)(=O)C(F)(F)F)ccc3n1C)n(C)c(=O)n2C` [Compound P39, 6-ethylsulfonyl-1,3-dimethyl-5-[1-methyl-5-(trifluoromethyl-sulfonyl)benzimidazol-2-yl]imidazo[4,5-b]pyridine-2-one], for which the percent control (mortality, anti-feedant effect or growth inhibition) at 200 ppm in data set [9] was at least 80%. Further, the mortality at 200 ppm in data set [1] and in [6] was at least 80% throughout. The mortality at 24 ppm in [2] was at least 80%. Further, the percent effect (mortality or growth inhibition) at 200 ppm in data set [4] and in data set [7] was at least 80% in each case.
As for `CCS(=O)(=O)c1cc2c(cc1-c1nc3cc(C(F)(F)F)ncc3n1C)n(C)c(=O)n2C` [Compound P9, 5-ethylsulfonyl-1,3-dimethyl-6-[3-methyl-6-(trifluoromethyl)imidazo[4,5-c]pyridin-2-yl]benzimidazol-2-one], the mortality at 200 ppm in [1] and in data set [3] was at least 80% in each case. For the same compound, the mortality at 24 ppm in [2] is at least 80%. Moreover, in [4], the percent effect (mortality or growth inhibition) at 200 ppm was at least 80%.
